# Laboratory results published in US20080032989A1, “Method of treating inflammatory diseases using tyroskine kinase inhibitors” (priority 2006, published 2008).
# Several values for one entry are separate records, joined by “and”; a condition that tells them apart may be missing. Equal entries are not always repeated. Entries after “also recorded” stand apart in the source; their conditions may differ. Where two headings read alike, the source gives them in different places.
# Experiments:
# PDGFR [1] = conditions: cited from earlier work
# [2] = tested on: collagen-induced arthritis (CIA) in DBA/1 mice; conditions: for severity of CIA (scores, paw measurements), direct comparison study: CGP53716 daily i.p. from 1 day prior to induction
# PDGFR [3] = tested on: PDGFR
# FGFR = conditions: literature, cited from earlier work
# c-Kit [4] = target: T1, c-Kit (Homo sapiens, UniProt P10721); conditions: Table 5; read-out: Kit Inhibitory Profile (IC50); cited from earlier work
# Abl = Abl (Homo sapiens, UniProt P00519); conditions: literature; cited from earlier work
# Chain of Abl (P00519 whole entry, species assumed): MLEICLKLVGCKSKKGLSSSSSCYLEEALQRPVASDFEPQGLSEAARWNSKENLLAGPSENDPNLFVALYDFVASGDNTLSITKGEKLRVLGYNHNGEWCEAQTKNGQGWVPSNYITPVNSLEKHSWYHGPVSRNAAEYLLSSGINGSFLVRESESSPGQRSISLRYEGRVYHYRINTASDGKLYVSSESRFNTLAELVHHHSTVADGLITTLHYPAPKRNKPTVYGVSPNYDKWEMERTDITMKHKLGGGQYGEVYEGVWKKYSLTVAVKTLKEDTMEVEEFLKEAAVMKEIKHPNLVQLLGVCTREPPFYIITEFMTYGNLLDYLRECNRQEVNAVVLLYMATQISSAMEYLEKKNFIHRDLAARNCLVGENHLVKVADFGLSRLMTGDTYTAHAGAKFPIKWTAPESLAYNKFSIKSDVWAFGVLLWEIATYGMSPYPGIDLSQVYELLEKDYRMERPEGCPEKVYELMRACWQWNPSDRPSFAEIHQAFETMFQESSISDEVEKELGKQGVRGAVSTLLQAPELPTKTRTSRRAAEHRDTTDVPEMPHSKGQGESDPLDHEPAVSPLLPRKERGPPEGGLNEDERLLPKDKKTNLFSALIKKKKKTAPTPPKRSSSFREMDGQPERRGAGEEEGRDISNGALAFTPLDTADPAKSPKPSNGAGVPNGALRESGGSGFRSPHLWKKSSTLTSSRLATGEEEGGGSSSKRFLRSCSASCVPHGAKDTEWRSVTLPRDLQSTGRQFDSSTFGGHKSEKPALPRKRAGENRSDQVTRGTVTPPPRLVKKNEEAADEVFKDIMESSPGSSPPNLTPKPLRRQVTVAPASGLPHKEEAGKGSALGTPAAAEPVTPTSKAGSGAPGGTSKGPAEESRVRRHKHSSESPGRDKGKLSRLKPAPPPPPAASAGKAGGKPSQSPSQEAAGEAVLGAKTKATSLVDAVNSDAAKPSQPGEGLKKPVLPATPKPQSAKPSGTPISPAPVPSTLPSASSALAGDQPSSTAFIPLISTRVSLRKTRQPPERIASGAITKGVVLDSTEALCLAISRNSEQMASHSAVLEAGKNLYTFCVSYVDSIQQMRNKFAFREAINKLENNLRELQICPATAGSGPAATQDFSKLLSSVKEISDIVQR
# [5] = tested on: EGFR, FGFR, insulin receptors, Src, Lyn, PKA and PKC; conditions: clinically relevant concentrations; cited from earlier work
# [6] = I.P. 100 mg/kg, cited from earlier work
# c-Kit [7] = target: T1, c-Kit; experiment: In vitro c-Kit phosphorylation assay (HTScan c-Kit Kinase Assay); format: biochemical; design: purchased Cell Signaling; conditions: 30 minutes, time-resolved fluorescence, FIG. 11A
# [8] = tested on: established collagen-induced arthritis (CIA) in DBA/1 mice; experiment: Treatment of established collagen-induced arthritis (CIA); format: in vivo, mouse
# c-Kit [9] = target: T2, c-Kit (Mus musculus, UniProt P05532); experiment: SCF-induced mast cell signaling, immunoblot and RPP lysate array; format: cell-based; conditions: mast cells
# T2 construct: endogenous in cells; host or cells: C1.MC/57.1 mouse mast cell line
# T2 sequence (P05532 25-979): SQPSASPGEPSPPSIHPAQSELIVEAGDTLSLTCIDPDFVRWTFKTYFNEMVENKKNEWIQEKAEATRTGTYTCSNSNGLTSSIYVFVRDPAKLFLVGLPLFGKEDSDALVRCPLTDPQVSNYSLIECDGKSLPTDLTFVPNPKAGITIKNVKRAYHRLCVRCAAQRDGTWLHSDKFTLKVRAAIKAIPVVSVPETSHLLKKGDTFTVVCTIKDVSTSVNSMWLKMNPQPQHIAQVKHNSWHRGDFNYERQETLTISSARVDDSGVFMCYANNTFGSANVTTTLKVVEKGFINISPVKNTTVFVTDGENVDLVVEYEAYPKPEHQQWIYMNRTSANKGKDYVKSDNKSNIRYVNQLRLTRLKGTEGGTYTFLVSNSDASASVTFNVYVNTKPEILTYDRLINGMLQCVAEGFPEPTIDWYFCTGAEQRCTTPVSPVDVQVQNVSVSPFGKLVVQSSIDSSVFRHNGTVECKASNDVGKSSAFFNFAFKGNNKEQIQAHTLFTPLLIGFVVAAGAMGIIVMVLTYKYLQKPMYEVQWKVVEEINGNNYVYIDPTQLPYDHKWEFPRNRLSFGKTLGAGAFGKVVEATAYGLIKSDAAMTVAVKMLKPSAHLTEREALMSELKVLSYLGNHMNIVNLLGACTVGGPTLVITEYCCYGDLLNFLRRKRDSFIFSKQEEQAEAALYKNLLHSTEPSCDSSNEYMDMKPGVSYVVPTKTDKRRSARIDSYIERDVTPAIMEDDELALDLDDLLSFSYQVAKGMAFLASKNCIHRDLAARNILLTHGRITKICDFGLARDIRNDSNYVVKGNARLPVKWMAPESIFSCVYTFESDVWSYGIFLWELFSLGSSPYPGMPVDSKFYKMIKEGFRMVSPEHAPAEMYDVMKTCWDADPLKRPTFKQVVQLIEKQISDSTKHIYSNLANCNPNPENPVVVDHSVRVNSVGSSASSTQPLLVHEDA
# synovial fluid monocytes = experiment: M-CSF-induced differentiation of RA synovial fluid monocytes to macrophages (morphology); format: cell-based, human; conditions: 5 μM imatinib with M-CSF, 72 hours
# Text: H. Macrophage isolation and stimulation. […]. […]
# [10] = tested on: autoreactive B cell responses in mice with CIA; experiment: Synovial array profiling of serum autoantibodies in CIA mice; format: in vivo, mouse; conditions: 100 mg/kg imatinib, day 49 sera
# Protocol: M. Synovial array analysis. As described (Robinson, W. H., et al., Nat Med 8:295-301, (2002); Hueber, W., et al., Arthritis Rheum 52:2645-2655, (2005)), 500+ peptides and proteins representing autoantigens were printed on SuperEpoxy slides (TeleChem), arrays were incubated with 1:150 dilutions of mouse sera, followed by Cy3-labeled anti-mouse IgG/M antibody (Jackson Immunoresearch), and scanned using a GenePix 4000B scanner. Median feature intensities for each antigen were calculated from the 4-8 duplicate features representing each antigen.
# . A robotic microarrayer was used to produce synovial arrays containing a spectrum of proteins and peptides representing candidate autoantigens in RA and CIA (Robinson, W. H., et al., Nat Med 8:295-301, (2002); Hueber, W., et al., Arthritis Rheum 52:2645-2655, (2005)). Arrays were incubated with 1:150 dilutions of sera, autoantibody binding detected with Cy3-labeled anti-mouse IgG/M, and arrays scanned and median fluorescence for each antigen determined. […]. Cluster and TreeView software was applied to order and display the array reactivity as a heatmap. […]
# EAE in C57B/6 mice = experiment: Experimental autoimmune encephalomyelitis (EAE); format: in vivo, mouse; conditions: 100 mg/kg twice daily vs PBS-vehicle
# [11] = tested on: B cells from naïve DBA/1 mice
# [12] = tested on: splenocytes expressing CII-specific TCR
# anti-CII T cells = conditions: mouse, 24 h
# C1.MC/57.1 mast cells = experiment: SCF-stimulated mast cell cytokine production; conditions: 100 ng/mL SCF, 48 hrs, imatinib 1 μM and 5 μM
# [13] = mice, cited from earlier work; for trough plasma level: 15 hours after dosing
# EGFR = EGFR (Homo sapiens, UniProt P00533); conditions: Table 7; cited from earlier work
# Chain of EGFR (P00533 25-1210, species assumed): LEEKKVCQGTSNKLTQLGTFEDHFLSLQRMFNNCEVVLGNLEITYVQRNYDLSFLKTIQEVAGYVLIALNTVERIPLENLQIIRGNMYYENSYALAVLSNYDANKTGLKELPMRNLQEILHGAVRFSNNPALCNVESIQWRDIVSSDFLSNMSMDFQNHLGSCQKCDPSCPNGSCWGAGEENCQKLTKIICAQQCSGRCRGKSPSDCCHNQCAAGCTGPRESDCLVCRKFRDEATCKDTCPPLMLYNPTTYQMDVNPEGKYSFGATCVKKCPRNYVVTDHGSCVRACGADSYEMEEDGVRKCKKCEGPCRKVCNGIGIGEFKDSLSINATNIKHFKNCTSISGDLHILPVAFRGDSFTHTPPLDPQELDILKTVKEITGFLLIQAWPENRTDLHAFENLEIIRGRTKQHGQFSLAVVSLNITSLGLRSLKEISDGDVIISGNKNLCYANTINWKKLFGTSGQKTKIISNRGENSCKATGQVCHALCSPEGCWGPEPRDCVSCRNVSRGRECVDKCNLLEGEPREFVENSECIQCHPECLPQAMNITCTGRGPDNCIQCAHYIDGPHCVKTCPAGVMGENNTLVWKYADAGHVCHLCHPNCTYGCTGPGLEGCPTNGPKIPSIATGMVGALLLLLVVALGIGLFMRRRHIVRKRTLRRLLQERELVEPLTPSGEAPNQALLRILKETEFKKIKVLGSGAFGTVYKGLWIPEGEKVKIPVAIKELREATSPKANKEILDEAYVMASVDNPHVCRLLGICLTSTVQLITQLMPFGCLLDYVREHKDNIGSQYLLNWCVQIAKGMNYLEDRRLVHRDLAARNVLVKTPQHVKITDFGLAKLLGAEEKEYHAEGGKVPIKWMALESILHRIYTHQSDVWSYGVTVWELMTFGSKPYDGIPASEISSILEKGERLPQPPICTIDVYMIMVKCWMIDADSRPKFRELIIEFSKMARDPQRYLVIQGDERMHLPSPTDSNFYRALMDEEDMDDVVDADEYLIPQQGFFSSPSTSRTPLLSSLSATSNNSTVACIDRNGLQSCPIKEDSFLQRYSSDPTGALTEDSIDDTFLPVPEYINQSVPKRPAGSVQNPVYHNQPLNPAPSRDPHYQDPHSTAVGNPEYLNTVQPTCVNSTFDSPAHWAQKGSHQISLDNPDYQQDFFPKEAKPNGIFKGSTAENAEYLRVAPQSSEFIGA
# [14] = rats, oral 50 mg/kg; cited from earlier work
# [15] = read-out: IC50 for PDGFbb-induced FLS proliferation (PDGFR), FLS from human RA patient, H3-thymidine incorporation, FIG. 11B
# [16] = Table 5, read-out: PDGFR Inhibitory Profile (IC50)
# [17] = 0-5 μM imatinib, SCF 10 minutes, immunoblot
# [18] = CII-specific (anti-CII) TCR transgenic, 1 μM
# [19] = CII-specific (anti-CII) TCR transgenic, 5 μM
# [20] = CII-specific (anti-CII) TCR transgenic, 10 μM
# [21] = CII-specific TCR transgenic, 1 μM
# [22] = CII-specific TCR transgenic, 5 μM
# [23] = CII-specific TCR transgenic, 10 μM
# [24] = Table 7, read-out: PDGFR Inhibitory profile (with IC50s when available)
structure (smiles),measurement,setting,value
CC1(C)CNc2cc(NC(=O)c3cccnc3NCc3ccncc3)ccc21 [AMG 706],PDGFR Inhibitory profile (with IC50s when available),PDGFR [1]; Table 7,potent
CC(C)c1c(C(=O)Nc2ccccc2)c(-c2ccccc2)c(-c2ccc(F)cc2)n1CC[C@@H](O)C[C@@H](O)CC(=O)O [Atorvastatin],clinical scores of CIA,"[2]; atorvastatin alone, 1.25 to 20 mg/kg, FIG. 16B",not effective at decreasing the clinical scores of CIA
Cc1ccc(NC(=O)c2ccccc2)cc1Nc1nccc(-c2cccnc2)n1 [CGP53716],IC50,PDGFR [3]; [15],[…]
same,"severity of CIA (scores, paw measurements), direct comparison study",[2]; FIG. 13C-13D,statistically significant reductions in the severity of CIA
same,efficacy at preventing and treating CIA relative to imatinib,[2]; FIG. 13C-13D,nearly as effective as imatinib
same,IC50,FGFR,1.1 µM
same,IC50,c-Kit [4],< 1 µM
same,IC50,Abl,0.6 µM
same,"inhibition of other kinases including EGFR, FGFR, insulin receptors, Src, Lyn, PKA and PKC",[5],does not inhibit other kinases at clinically relevant concentrations
same,plasma level,[6]; 8 hours after dosing,1.6 µM
same,plasma level,[6]; 24 hours after dosing,1.9 µM
same,IC50,c-Kit [7],0.002 µM
COc1cc2c(Oc3ccc4[nH]c(C)cc4c3F)ncnc2cc1OCCCN1CCCC1 [Cediranib],PDGFR Inhibitory profile (with IC50s when available),PDGFR [1]; Table 7,potent?
COc1ccc(COc2ccc(Cc3cnc(N)nc3N)cc2OC)cc1 [GW2580],"severity of established CIA (mean visual arthritis score, paw thickness)",[8]; 50 mg/kg for 5 days vs vehicle,highly effective at treating established collagen-induced arthritis; also recorded: reduced the severity of arthritis
same,IC50,PDGFR [3]; [15],4.3 µM and 4.35 µM
same,IC50,"PDGFR [3]; read-out: PDGFR Inhibitory Profile (IC50), Table 5, value referenced to FIG. 11",4.3 µM
Cc1ccc(NC(=O)c2ccc(CN3CCN(C)CC3)cc2)cc1Nc1nccc(-c2cccnc2)n1 [Imatinib],"progression of established arthritis (visual score, mean paw thickness)","[8]; 33 and 100 mg/kg, p<0.05 after 10 days of treatment",inhibited the progression of established arthritis
same,"histopathology: synovitis, pannus, and erosion scores","[8]; treatment of established CIA, 33 and 100 mg/kg, p<0.05","statistically significant reductions in synovitis, pannus, and erosion scores"
same,SCF-induced phosphorylation of c-Kit,c-Kit [9]; [17],potently inhibited SCF-induced phosphorylation of c-Kit
same,phosphorylation of downstream Akt (Ser 473),c-Kit [9]; [17],corresponding reduction in phosphorylation of downstream Akt (Ser 473)
same,"SCF-induced activation of kinases downstream of c-Kit (ERK, JNK, p38), RPP array",c-Kit [9]; 1 and 5 μM imatinib,inhibited SCF-induced activation of diverse protein tyrosine kinases downstream of c-Kit
same,differentiation of synovial fluid monocytes into macrophages (morphology),synovial fluid monocytes,blocked the differentiation of synovial fluid monocytes from human RA patients into macrophages
same,expansion (epitope spreading) of autoreactive B cell responses,[10],reduced expansion of autoreactive B cell responses
same,onset and severity of EAE,EAE in C57B/6 mice,a delay in the onset and reduced severity of EAE
same,CIA efficacy compared to PBS vehicle-control,"[2]; 15 mg/kg imatinib, FIG. 16A",relatively little efficacy
same,"severity of CIA (mean visual arthritis score, mean paw thickness)","[2]; 33 or 100 mg/kg orally twice-daily from 1 day prior to induction, p<0.01 after day 38",significant reductions in the severity of CIA
same,incidence of CIA,"[2]; 33 or 100 mg/kg orally twice-daily, day 49",reduced the incidence of CIA
same,"severity of CIA (scores, paw measurements), direct comparison study",[2]; FIG. 13C-13D,statistically significant reductions in the severity of CIA
same,"histopathology: synovitis, pannus, and erosion scores","[2]; CIA prevention study, 33 and 100 mg/kg, p<0.01 synovitis and erosion, p<0.05 pannus","statistically significant reductions in synovitis, pannus, and erosion scores"
same,IgM production by LPS-stimulated B cells,[11]; imatinib 1 μM,mildly reduced
same,IgM production by LPS-stimulated B cells,[11]; imatinib 10 μM,most significant reduction
same,production of IFN-γ and TNFα by CII-stimulated TCR transgenic T cells,"[12]; CII 20 μg/mL, 3.3 μM imatinib",moderate reduction
same,"production of IFN-gamma, IL-4, and TNFα by CII-stimulated TCR transgenic T cells","[12]; CII 20 μg/mL, 10 μM imatinib",further reduced production
same,anti-CII T cell production of IL-2,[12]; any imatinib concentration tested,not significantly reduced
same,Early apoptosis (PI− AnnV+),anti-CII T cells; [18],3.8%
same,Late apoptosis (PI+ AnnV+),anti-CII T cells; [18],0.6%
same,Early apoptosis (PI− AnnV+),anti-CII T cells; [19],5.2%
same,Late apoptosis (PI+ AnnV+),anti-CII T cells; [19],1.2%
same,Early apoptosis (PI− AnnV+),anti-CII T cells; [20],6.2%
same,Late apoptosis (PI+ AnnV+),anti-CII T cells; [20],0.9%
same,Early apoptosis (PI− AnnV+),anti-CII T cells; [21],4.6%
same,Late apoptosis (PI+ AnnV+),anti-CII T cells; [21],1.1%
same,Live cells (PI− AnnV−),anti-CII T cells; [21],95.5%
same,Early apoptosis (PI− AnnV+),anti-CII T cells; [22],5.3%
same,Late apoptosis (PI+ AnnV+),anti-CII T cells; [22],0.7%
same,Live cells (PI− AnnV−),anti-CII T cells; [22],93.6%
same,Early apoptosis (PI− AnnV+),anti-CII T cells; [23],6.6%
same,Late apoptosis (PI+ AnnV+),anti-CII T cells; [23],0.9%
same,Live cells (PI− AnnV−),anti-CII T cells; [23],93.7%
same,Early apoptosis (PI− AnnV+),"anti-CII T cells; anti-CII TCR transgenic, 1 μM",3.4%
same,Late apoptosis (PI+ AnnV+),"anti-CII T cells; anti-CII TCR transgenic, 1 μM",0.5%
same,Early apoptosis (PI− AnnV+),"anti-CII T cells; anti-CII TCR transgenic, 5 μM",5.9%
same,Late apoptosis (PI+ AnnV+),"anti-CII T cells; anti-CII TCR transgenic, 5 μM",0.8%
same,Early apoptosis (PI− AnnV+),"anti-CII T cells; anti-CII TCR transgenic, 10 μM",6.1%
same,Late apoptosis (PI+ AnnV+),"anti-CII T cells; anti-CII TCR transgenic, 10 μM",0.9%
same,"mast cell production of TNFα, GM-CSF, and IL-6",C1.MC/57.1 mast cells,"dramatically reduced mast cell production of TNFα, GM-CSF, and IL-6"
Cc1cn(-c2cc(NC(=O)c3ccc(C)c(Nc4nccc(-c5cccnc5)n4)c3)cc(C(F)(F)F)c2)cn1 [Nilotinib],IC50,PDGFR [1]; [24],0.001 µM
Cn1c(=O)c(-c2c(Cl)cccc2Cl)cc2cnc(Nc3cccc(CO)c3)nc21 [PD166326],trough plasma level,[13]; 25 mg/kg,approximately 0.005 μM
same,peak plasma level,[13]; 25 mg/kg,0.026 µM
same,trough plasma level,[13]; 50 mg/kg,~0.018 µM
same,peak plasma level,[13]; 50 mg/kg,0.098 µM
C[C@@H](Nc1ncnc2[nH]c(-c3ccc(O)cc3)cc12)c1ccccc1 [PKI-166],EGFR Inhibitory profile (with IC50s when available),EGFR,potent
Cc1[nH]c(/C=C2\C(=O)Nc3ccccc32)c(C)c1CCC(=O)O [SU6668],IC50,PDGFR [1]; [24],0.01 µM
Cc1[nH]c(/C=C2\C(=O)Nc3ccc(Br)cc32)c(C)c1CCC(=O)O [SU9518],IC50,PDGFR [1]; [16],0.05 µM
same,IC50,"PDGFR [1]; literature, read-out: IC50 PDGFR (PDGFRα/β)",0.053 µM
same,IC50,FGFR; unit inferred,4.4 µM
same,peak plasma level,[14],1.76 µM
same,plasma level 8 hours after dosing,[14],above 1 μM
CNC(=O)c1cc(Oc2ccc(NC(=O)Nc3ccc(Cl)c(C(F)(F)F)c3)cc2)ccn1 [Sorafenib],PDGFR Inhibitory profile (with IC50s when available),PDGFR [1]; Table 6,potent
